In patent US20140303109A1 (priority 2010, published 2014):

Assays:
[1] = Tissue distribution after single intragastric dose; type: in vivo, mice; conditions: for concentration in the colon: 250 mg/kg oral; for preferential tissue distribution: 250 mg/kg single dose, liver, lung, kidney, heart, pancreas, colon
Method: (§1) The mice were randomly divided into two groups of 18 mice apiece. […] Blood and tissue samples were harvested before initiation of treatment (0 hr) and at 1, 2, 4, 6, 8, 12, 16, and 24 hrs following the intragastric administration. At each time point, two mice were euthanized and ˜200 μL blood was collected by cardiac puncture, and tissues (liver, lung, kidney, heart, pancreas, and colon) were harvested, washed free of blood with PBS, blotted dry, weighed, and stored at −80° C. until analysis. The collected blood samples were allowed to clot, centrifuged, and then the serum was separated and stored at −80° C. until analysis.
(§2) The tissue samples were homogenized in 5 volumes of ice-cold normal saline. Aliquots of serum or tissue homogenate were spiked with ethyl acetate (containing 50 ng/ml zilueton as an internal standard) as follows: 100 μL serum/500 μL ethyl acetate and 500 μL tissue homogenate/1 ml ethyl acetate. The mixtures were vortex-mixed and centrifuged at 14,000 rpm for 5 minutes. The top layer was separated and dried under a stream of nitrogen in a water bath at about 50° C. The residue was reconstituted in 100 μL of methanol/water containing 0.45% formic acid (70:30 v/v) and then centrifuged again.
(§3) The supernatant (100 μL) was injected into the HPLC equipment, and separated on a Waters Xterra MS column (2.1×50 mm, […] i.d.) With a mobile phase consisting of methanol/water containing 0.45% formic acid (70:30 v/v) at a flow rate of 0.2 ml/min. The column effluent was monitored using a Waters Quattro Micro™ triple quadrapole mass-spectrometric detector equipped with an electrospray ionization source. (Waters Corporation, Milford, Mass.). […] The internal standard zilueton was monitored in the positive mode at the transition of m/z, 237.1→160.8. […] The within-day and between-day precision and accuracies of the assay was <15%.

rabbit 20S proteasome = test: Chymotrypsin-like activity of purified 20S proteasome (Suc-LLVY-AMC); type: biochemical
Text: Purified rabbit 20S proteasome and a fluorogenic substrate Suc-LLVY-AMC for the proteasomal chymotrypsin-like activity were obtained from Calbiochem Inc. (San Diego, Calif.).

[2] = Pancreas tissue pharmacokinetics after single intragastric dose; type: in vivo, mice
Method: as §1, §2, §3
Serum pharmacokinetic parameters were estimated using non-compartmental analysis with WinNonlin software version 4.2 (Pharsight Corporation, Cary, N.C.). The maximum serum concentration (Cmax) and the time of occurrence for maximum concentration (Tmax) were obtained by visual inspection of the serum concentration-time curve after drug administration. The total area under the serum concentration-time curve from time zero to the last measurable time point ([…]) was calculated using the linear and logarithmic trapezoidal method for ascending and descending serum concentrations, respectively.

miR-200b and miR-200c = test: Real-time RT-PCR of miR-200b and miR-200c in PC cell lines; type: cell-based, human; conditions: 72 h; BxPC-3, MIAPaCa-E, MIAPaCaM
Method: The expression of miRNAs (miRNA-200a, miR-200b, and miR-21) in all three pancreatic cancer cell lines, was measured with a TaqMan MicroRNA Assay kit (Applied Biosystems, Carlsbad, Calif.) following the manufacturer's protocol. […] Real-time RT-PCR reactions were then carried out in a total volume of 25 μl reaction mixture, as described by Li, et al., id., using Smart Cycler II (Cepheid, Sunnyvale, Calif.). The data were analyzed using Ct method and were normalized by RNU6B expression in each sample.

[3] = tested on: miR-21, miR-200b, miR-200c; test: RT-PCR of miR-21, miR-200b, miR-200c in MIAPaCa-2 tumors; type: in vivo, mice
Method: Therefore, the expression of miRNAs (miRNA-200b, miR-200c, and miR-21) in MIAPaCa-2 tumors, was assessed with a TaqMan MicroRNA Assay kit (Applied Biosystems, Carlsbad, Calif.) following the manufacturer's protocol. 5 ng of total RNA was reverse transcribed and real-time PCR reactions were carried as previously described.

CD44 and EpCAM = CD44 and EpCAM immunostaining of pancreatospheres; type: cell-based, human; conditions: AsPC-1 and AsPC-1-GTR, 7 days
Method: Single cell suspensions of AsPC-1 and AsPC-1-GTR were plated into sphere formation media as previously described. After 7 days, the pancreatospheres were collected, washed, and fixed. The CSC biomarkers, CD44 and EpCAM, were used for immunostaining and the pancreatospheres were examined with confocal microscopy.

BxPC-3 cells = test: MTT cell viability, BxPC-3 (gemcitabine-sensitive); type: cell-based, human; conditions: 0.1-4.0 μMol/L
Method: Cell growth was assessed by an MTT assay in a manner similar to that as described above. The color intensity was measured by a TECAN microplate fluorometer (Tecan Group, LTD, Research Triangle Park, N.C.) at 595 nm.

VEGF = test: AlphaLISA VEGF secretion; type: cell-based, human; conditions: 72 h; MIAPaCa-E and MIAPaCa-M
Text: The effect of CDF on another downstream transcriptional target of NF-κβ, vascular endothelial growth factor (VEGF) secretion, was studied in the three human pancreatic cell lines.

[4] = tested on: AsPC-1-GTR and MIAPaCa-2-GTR cells; test: Clonogenic assay, gemcitabine/tarceva-resistant lines; type: cell-based, human; conditions: 4 μmol/L CUR or CDF, 20 nmol/L GEM
[5] = tested on: NF-κB DNA binding activity; test: EMSA for NF-κB DNA binding activity in tumor tissue; type: in vivo, mice; conditions: MIA PaCa-2 tumors
Method: Nuclear extracts were prepared from tumor tissue induced by the MIA PaCa-2 cells using an homogenizer with 400 μl of ice cold lysis buffer extracted as described earlier. EMSA was performed using the Odyssey Infrared Imaging System with NF-κβ 1RDye labeled oligonucleotide from LI-COR, Inc. (Lincoln, Nebr.). An NF-Kβ competition control study was conducted using unlabeled NF-Kβ consensus oligonucleotide. The samples were loaded and run at 30 mA for 1 hour. The gel was scanned using Odyssey Infrared Imaging System (LI-COR, Inc.).

MIAPaCa-2 tumors = test: MIAPaCa-2 subcutaneous xenograft tumor model; type: in vivo, mice; conditions: CDF or CUR 5 mg/mouse/day intragastric 12 days; GEM 1 mg/mouse i.v. x3
Method: Female CB17 SCID mice 4 wks old were purchased from Taconic Farms (Germantown, N.Y.). Small fragments of the MIAPaCa-2 xenograft were implanted subcutaneously and bilaterally into mice. […] Tumor measurements and changes in weight were performed and tissue was stored at −70° C. for RNA and protein extraction.

[6] = pancreas, 250 mg/kg single intragastric
[7] = female, ICR-SCID, mouse, po, pancreas, 250 mg/kg single intragastric

Row | SMILES | concentration in the colon [1] | preferential tissue distribution [1] | AUClast [2, 6] [µg·h/g] | Clast [2, 6] [µg/g] | Tlast [2, 6] [h] | expression of miR-200b and miR-200c (miR-200b and miR-200c) | expression of miR-200b and miR-200c in tumors [3] | also measured
1 | COc1cc(/C=C/C(=O)CC(=O)/C=C/c2ccc(O)c(OC)c2)ccc1O [CUR, (1E,6E)-1,7-bis(4-hydroxy-3-methoxyphenyl)hepta-1,6-diene-3,5-dione, reference compound] | detectable at high concentrations in the colon | present mainly in heart and lung tissue | 3.46 | 0.20 | 16.0 | increased expression of miR-200b and miR-200c | minimal | proteasome inhibition (rabbit 20S proteasome; 10 μM): 70%; inhibition of chymotrypsin-like activity of the proteasome (rabbit 20S proteasome; 1-10 μM, 2 h 37° C.): 20-70%
2 | COc1cc(/C=C/C(=O)C(=Cc2ccc(F)c(F)c2)C(=O)/C=C/c2ccc(O)c(OC)c2)ccc1O [CDF, (1E,6E)-1,7-bis(4-hydroxy-3-methoxyphenyl)hepta-1,6-diene{4(3,4 difluorobenzaldehyde)}-3,5-dione] | detectable at high concentrations in the colon | accumulated preferentially in the pancreas | 36.56 | 0.04 | 12.0 | much more pronounced | increased expression of both miR-200b, and miR-200c | expression of CD44 and EpCAM in pancreatospheres (CD44 and EpCAM): decreased the expression of CD44 and EpCAM in pancreatospheres; cell viability (BxPC-3 cells): significant reduction in cell viability; AUClast in pancreas tissue relative to CUR ([2]; 250 mg/kg): 10.6 times; Cmax in pancreas tissue relative to CUR ([2]; 250 mg/kg): 4.3 times; Kp at 8 h ([2]; female, ICR-SCID, mouse, pancreas / serum, oral, 250 mg/kg, at 8 h, read-out: Cmax in pancreas relative to serum): 44.5; Cmax [2, 7]: 9350 ng/g; Tmax [2, 7]: 8 h; secreted levels of VEGF (VEGF): significant inhibition of secreted levels of VEGF; reduction of clonogenicity [4]: 80%; NF-κβ activation in tumor tissue [5]: down-regulated NF-κβ activation; tumor growth (MIAPaCa-2 tumors): significantly inhibited tumor growth; expression of MiR-21 in tumors [3]: significant reduction in the expression of MiR-21
